In US4714711A, “6-hydroxy-2(2-hydroxy-4-methoxyphenyl)benzofuran derivatives to inhibit leukotriene biosynthesis” (Merck & Co., Inc., priority 1986, dated 1987):
Values after ≈ are worked out from the molar mass of the structure shown.

What was measured:
[1] = system: leukotriene C4; experiment: Inhibition of CXBG leukotriene production (A23187-stimulated, enzyme immunoassay); type: cell-based, mice; settings: Mus musculus; CXBG cells, 2×10^6 cells/ml, inhibitor 5 minutes at 37°, A23187 stimulation 10 minutes; read-out: IC50 (μg/ml) LTC4
Protocol: (§1) Representative compounds of Formula I have been tested using the following assay to determine their mammalian leukotriene biosynthesis inhibiting activity and other relevant activities:
(§2) CXBG cells grown intraperitoneally in CB4 B6 /F1 /J mice were washed 5 times in Dulbeccos phosphate buffered saline without calcium or magnesium, suspended in medium 199 (Gibco) at 2×10^6 cells/ml, and incubated 15 minutes at 37°. Inhibitor solutions in methanol were incubated with the cells (10μl/600 μl cells), for 5 minutes at 37°, and the cells were stimulated with 60 μl A23187 (50 μg/ml) for 10 minutes at 37°. Aliquots were removed for measurement of leukotriene C4 or thromboxane B2 by enzyme immunoassay as previously reported (D. K. Miller, et al., J. Immunological Methods, 81, 169-185, 1985). The percentage inhibition was calculated by the following: [formula]

[2] = system: thromboxane B2; experiment: Inhibition of CXBG prostoglandin (thromboxane B2) production (A23187-stimulated, enzyme immunoassay); type: cell-based, mice; settings: Mus musculus; CXBG cells, 2×10^6 cells/ml, inhibitor 5 minutes at 37°, A23187 stimulation 10 minutes; read-out: IC50 (μg/ml) Tx B2
Protocol: as §1, §2

| Structure (SMILES) | IC50 [1] | IC50 [2] |
| --- | --- | --- |
| COc1ccc(-c2cc3cc(O)ccc3o2)c(O)c1 [5-hydroxy-2-(2-hydroxy-4-methoxyphenyl)benzofuran] | 0.75 µg/mL (≈ 2.93 µM) | 0.5 µg/mL (≈ 1.95 µM) |
| COc1cc(O)ccc1-c1cc2ccc(O)cc2o1 [6-hydroxy-2-(2-methoxy-4-hydroxyphenyl)benzofuran] | 0.028 µg/mL (≈ 0.109 µM) | 1 µg/mL (≈ 3.9 µM) |
| COc1ccc(-c2cc3ccc(O)cc3o2)c(O)c1 [6-hydroxy-2-(hydroxy-4-methoxyphenyl)benzofuran] | 0.013 µg/mL (≈ 0.0507 µM) | 0.3 µg/mL (≈ 1.17 µM) |
